For test [1], the target named is T1, Xcc NAMPT (Xanthomonas campestris pv. campestris, UniProt A0A0H2X5R2). Put plainly: NAMPT enzyme activity, fluorometric NMN assay (kinetic constants). In kind it is biochemical. How it is done:
(§1) To ensure the reliability of the results, all assays were performed multiple times. NAMPT enzyme activity was assessed using a chemical approach that converted NMN into a fluorescent derivative, in accordance with established protocols[15],[30].
(§2) The enzymatic reactions were carried out for 15 min at 37 °C, and the quantification of NMN was achieved using the fluorescence method. Briefly, the sample containing NMN (25 μl) was mixed with 10 μl of 20% acetophenone (200 μl acetophenone dissolved in 800 μl DMSO) and 10 μl of 2 M KOH. The mixture was then incubated on ice for 10 minutes before adding 45 μl of 100% formic acid. The resulting mixture was incubated at 37 °C for 15 min. Samples (40 μl) were then transferred to a 384-well plate, and fluorescence intensity was measured using the Victor Nivo Multimode plate reader (Perkin Elmer), with excitation and emission wavelengths set at 355/40 and 435/20 nm, respectively.
Correspondingly, the additions of 20% acetophenone, 2 M KOH, and 100% formic acid were adjusted proportionally. The resulting final samples (120 μl) were transferred to 96-well plates, and the fluorescence values were measured following the same procedure as described earlier.
(§3) The kinetic data was analyzed using Graphpad Prism 8. To determine the hill coefficients, substrate-velocity curves were analyzed by nonlinear regression with an allosteric sigmoidal model using the equation v = Vmax S^h/(Km^h + S^h).

Test [2] deals with T1, Xcc NAMPT. Put plainly: Determination of IC50 value for FK866. In kind it is biochemical.
For test [3], the target named is T1, Xcc NAMPT. Put plainly: biochemical.
Test [4] relates to Xcc ΔNamptΔNads (XC_0719 and XC_1067 double deletion mutant). In kind it is cell-based, Xanthomonas campestris pv. campestris. As to conditions: 0.1 mM supplement, 28 °C. How it is done:
The bacterium Xcc was grown in NYG medium at 28 °C and shaked at 200 rpm for 16–18 h. Once the cells had grown to a point where OD600 reached 1.0, they were harvested via centrifugation and washed twice with MMX medium. Following this, a volume of 0.1 ml of the cell suspension was added to 5 ml of fresh MMX medium. […] The culture was grown at 28 °C and the OD600 values were measured every 12 h. The experiments were repeated at least three times to ensure consistency.

Test [5] deals with R373A+R180A mutant pair of Xcc NAMPT (Xanthomonas campestris pv. campestris, UniProt A0A0H2X5R2, R180A/R373A). Briefly: NAMPT enzyme activity, fluorometric NMN assay (kinetic constants). In kind it is biochemical. How it is done:
as §2
. Correspondingly, the additions of 20% acetophenone, 2 M KOH, and 100% formic acid were adjusted proportionally. The resulting final samples (120 μl) were transferred to 96-well plates, and the fluorescence values were measured following the same procedure as described earlier.
as §3
Fig. S9 Substrate-velocity curve for the R373A+R180A mutant pair of Xcc
of 0.3 nM mutant pair was used.
μM. The error bars depicted on the plot indicate the standard deviation of
measurements taken from three replicates.

Test [6] addresses T1, Xcc NAMPT. As to conditions: read-out: Kd2; ITC, 25 mM NAM into 30 μM NAMPT, sequential binding sites model, second site.
Test [7] has as its target T2, human NAMPT (Homo sapiens, UniProt P43490). The note with it: human NAMPT for NAM; cited from earlier work.
The target in test [8] is Xcc NAMPT with ATP pretreatment (Xanthomonas campestris pv. campestris, UniProt A0A0H2X5R2). The note with it: ITC after ATP treatment, sequential binding. How it is done:
Proteins pretreated with ATP were prepared by incubating 1 μM protein and 1 mM ATP at 25 °C for 30 min. […] The ATP was subsequently removed by gel filtration using the Superdex 200 Increase 10/300 GL column. The final concentrations of proteins were measured by Nanodrop.
figure presented is a representative sample from three separate experiments. A
sequential binding sites model was used to fit the binding curves, yielding the
dissociation constant (Kd) and the stoichiometry (N) of the binding reaction.
(1 picture or pasted object on this page, not shown here)

For test [9], the target named is Xcc NAMPT H175F-I224F-V291F-I332F quadruple mutant (Xanthomonas campestris pv. campestris, UniProt A0A0H2X5R2, H175F/I224F/I332F/V291F). In kind it is biochemical. As to conditions: for Km / kcat: 3.5 nM quadruple mutant. How it is done:
as §1, §2
The kinetic data was analyzed using Graphpad Prism 8. To determine the hill coefficients, substrate-velocity curves were analyzed by nonlinear regression with an allosteric sigmoidal model using the equation v = Vmax S^h/(Km^h + S^h). […]
mutant. c-d Michaelis–Menten plots for the tunnel-blocked quadruple mutant of Xcc […]
To determine the kinetic parameters of quadruple mutant, a concentration of 3.5 nM mutant was used. […]

Test [10] addresses T2, human NAMPT. Briefly: NAMPT enzyme activity, fluorometric NMN assay (kinetic constants). In kind it is biochemical. The note with it: 30 nM human NAMPT, PRPP 3 to 50 μM. How it is done: To determine the kinetic parameters of human NAMPT, a concentration of 30 nM His-tagged human NAMPT was used. […] The remaining conditions were kept the same as those employed in the Xcc NAMPT reaction system.
as §2, §3

For test [11], the target named is T2, human NAMPT. As to conditions: NAMPT activators; cited from earlier work.
Where [12] appears, read: substrate of Xcc NAMPT, 37 °C, Michaelis-Menten fit.
Setting [13] is: FK866 0.4 nM, E=0.4 nM, replicates.
[14] abbreviates: 0.3 nM mutant pair, NAM 0.1 to 4 μM.

“And” between values parts separate entries of the source, which are not always exact repeats. Equal values may be shown once. Read-outs that look alike come from different tables or passages of the source.

The term Km denotes the substrate concentration at which the rate is half of its maximum. What is called kcat is the maximal rate divided by the concentration of active sites. Usually IC50 stands for the concentration that inhibits the measured activity by half. A low value points to inhibition by little substance.

T2 sequence (P43490 whole entry): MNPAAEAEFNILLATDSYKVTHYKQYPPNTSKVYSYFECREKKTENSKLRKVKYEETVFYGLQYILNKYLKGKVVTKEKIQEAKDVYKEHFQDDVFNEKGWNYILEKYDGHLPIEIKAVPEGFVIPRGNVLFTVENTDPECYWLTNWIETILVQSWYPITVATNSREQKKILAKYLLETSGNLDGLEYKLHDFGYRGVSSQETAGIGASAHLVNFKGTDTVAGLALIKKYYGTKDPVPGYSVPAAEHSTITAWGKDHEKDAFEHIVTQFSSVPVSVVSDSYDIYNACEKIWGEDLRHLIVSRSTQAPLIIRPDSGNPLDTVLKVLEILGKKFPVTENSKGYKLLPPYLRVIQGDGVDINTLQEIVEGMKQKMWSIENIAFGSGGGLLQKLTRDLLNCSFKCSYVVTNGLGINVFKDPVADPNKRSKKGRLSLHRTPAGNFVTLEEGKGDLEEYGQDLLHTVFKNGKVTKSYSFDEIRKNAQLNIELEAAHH

As for `Nc1ncnc2c1ncn2[C@@H]1O[C@H](COP(=O)(O)OP(=O)(O)OP(=O)(O)O)[C@@H](O)[C@H]1O` [ATP], the Km on Xcc NAMPT [1] was determined as 560 ± 60 µM. The kcat at Xcc NAMPT [1] (setting [12]) was determined as 4.40 ± 0.16 s⁻¹.

With `O=C(/C=C/c1cccnc1)NCCCCC1CCN(C(=O)c2ccccc2)CC1` [FK866], 0.00023 µM corresponded to half-maximal inhibition on Xcc NAMPT [2] (IC50). For the same molecule, the Activity % was 99.2204% and 100.986% and 94.6063% and 98.6899% on Xcc NAMPT [2] (FK866 0.02 nM, E=0.4 nM, replicates); 101.785% and 102.935% and 85.505% and 97.238% on Xcc NAMPT [2] (FK866 0.04 nM, E=0.4 nM, replicates); 78.2474% and 70.3189% and 72.1819% and 76.3149% at Xcc NAMPT [2] (FK866 0.1 nM, E=0.4 nM, replicates); 62.8959% and 69.0568% and 55.7537% and 65.4354% on Xcc NAMPT [2] (FK866 0.2 nM, E=0.4 nM, replicates); 17.7119% and 13.8804% and 14.6162% on Xcc NAMPT [2] (setting [13]); 4.02% and 4.725% and 5.923% and 4.615% on Xcc NAMPT [2] (FK866 1 nM, E=0.4 nM, replicates). Besides, the Activity % at Xcc NAMPT [2] (FK866 2 nM, E=0.4 nM, replicates) was 1.856% and 4.769% and 2.139% and 3.338%. Also, the activity at 0.0004 µM at Xcc NAMPT [2] (setting [13]) amounted to 14.2%. In addition, the Kd on Xcc NAMPT [3] is 0.0822 µM.

Consider `O=C(O)c1cccnc1` [NA, nicotinic acid], for which the “growth of ΔNamptΔNads in MMX with supplement” value (“growth of ΔNamptΔNads in MMX” for short) in test [4] is on record as “did not grow”.

Take `NC(=O)c1ccc[n+]([C@@H]2O[C@H](COP(=O)([O-])OP(=O)(O)OC[C@H]3O[C@@H](n4cnc5c(N)ncnc54)[C@H](O)[C@@H]3O)[C@@H](O)[C@H]2O)c1` [NAD+, nicotinamide adenine dinucleotide]: in [4], the “growth of ΔNamptΔNads in MMX” value is recorded as “able to grow”.

Consider `NC(=O)c1cccnc1` [NAM, nicotinamide], for which the Km was 0.08 ± 0.01 µM in [5] (setting [14]), 0.005 ± 0.002 µM at human NAMPT [7] and 7.33 ± 0.66 µM in test [9]. Further, the kcat is 0.188 ± 0.005 s⁻¹ in [5] (setting [14]) and 0.55 ± 0.02 s⁻¹ in [9]. In [5] (mutant pair, NAM), the “hill coefficient (H)” value was 1.64 ± 0.32 and 1.64. The Kd was 1410 µM on Xcc NAMPT [3], 21000 µM at Xcc NAMPT [6], 330 µM in test [8] (read-out: Kd (first binding site)) and 2990 µM in test [8] (read-out: Kd (second binding site)). For the same molecule, the “growth of ΔNamptΔNads in MMX” value in test [4] is recorded as “did not grow”. Also, the hill coefficient in test [9] (NAM, quadruple mutant) is 1.00; at Xcc NAMPT [1] (NAM substrate-velocity curve, allosteric sigmoidal model), ~ 1.98.

Take `NC(=O)c1ccc[n+]([C@@H]2O[C@H](CO)[C@@H](O)[C@H]2O)c1` [NmR, nicotinamide riboside]: the “growth of ΔNamptΔNads in MMX” value in test [4] was “did not grow”.

As to `O=P(O)(O)OC[C@H]1O[C@H](OP(=O)(O)OP(=O)(O)O)[C@H](O)[C@@H]1O` [PRPP], the figures for the kcat (at human NAMPT [10]; in [9]; at Xcc NAMPT [1] (setting [12])) were 0.045 ± 0.001 s⁻¹, 0.44 ± 0.01 s⁻¹ and 6.99 ± 0.56 s⁻¹, respectively. The Km at human NAMPT [10] (2.5 mM ATP, 10 μM NAM) worked out at 5.41 ± 0.58 µM; in test [9] (read-out: Km) it was 9.56 ± 1.14 µM; at Xcc NAMPT [1] (setting [12]), 24.4 ± 6.26 µM. Also, the “fold decrease in Km” value in test [9] (quadruple mutant vs wild-type) is 2.55 fold. In addition, the “fold decrease in catalytic efficiency” value in test [9] (quadruple mutant vs wild-type) is recorded as “about 5.80 fold”. Further, the “fold decrease in kcat” value in test [9] (quadruple mutant vs wild-type) worked out at 15.89 fold.

Turning to `O=C(NCc1ccncc1)Nc1ccc(S(=O)(=O)N2CC3CCC(C2)O3)cc1` [SBI-797812], the “effect on the enzymatic activity of human NAMPT” value at human NAMPT [11] is reported as “almost double”.

Source of the values: publication PMC10907753 (Communications Biology, 2024).
